The values below come from patent US11090285B2, “Treatment of circadian rhythm disorders” (Vanda Pharmaceuticals Inc., priority 2013, dated 2021).

Where two headings read alike, the source gives them in different places.

Data set [1] in a line: Effect of smoking on pharmacokinetics of tasimelteon and metabolites. It is filed as in vivo, human. More on the design: AUC (inf) / AUC(0-inf): concentration or dose not given beside the values. Particulars: for AUC (inf), Geometric Mean Ratio / Cmax, Geometric Mean Ratio / t½, Geometric Mean Ratio: Smokers vs Non-Smokers; for half-life: read-out: t½ (converted). The source says: Smokers were defined as those smoking 10 or more cigarettes per day. Non-smokers were defined as those smoking no cigarettes per day.

Data set [2] is described as follows: Pharmacokinetics on co-administration of tasimelteon and fluvoxamine. Type of data set: in vivo, human. The following applies: for AUC (inf), Geometric Mean Ratio / Cmax, Geometric Mean Ratio / t½, Geometric Mean Ratio: Day 8 vs Day 1; for half-life: read-out: t½ (converted). The protocol:
Twenty-four healthy male or female subjects between the ages of 18 and 55 years of age (inclusive) who were non-smokers with a body mass index (BMI) of ≥18 and ≤35 kg/m2 participated in this open-label, single-sequence study conducted at one site. On day 1, subjects were administered […] of tasimelteon.

The conditions of data set [3]: in vivo; cited from earlier work.
Setting [4] is: Smokers (10 or more cigarettes per day).
Where [5] appears, read: Day 1, 5.667 mg tasimelteon alone.
Where [6] appears, read: Day 8, 5.667 mg tasimelteon + 50 mg fluvoxamine.
The mark [7] stands for this setting: human, in vivo, Non-Smokers, read-out: Cmax.
Where [8] appears, read: human, in vivo, Smokers (10 or more cigarettes per day), read-out: Cmax.
The mark [9] stands for this setting: human, in vivo, Smokers, read-out: Tmax.
The mark [10] stands for this setting: both sexes, human, in vivo, Day 1, 5.667 mg tasimelteon alone, read-out: Cmax.
The mark [11] stands for this setting: both sexes, human, in vivo, Day 1, 5.667 mg tasimelteon alone, read-out: Tmax.
The mark [12] stands for this setting: both sexes, human, in vivo, Day 1, 5.667 mg tasimelteon alone.

The t½ is the time needed for the level to fall by half in the phase considered.

For the molecule `CCC(=O)NC[C@@H]1C[C@H]1c1cccc2c1CC(O)O2` (stereo partly drawn) [M13], in data set [1] (Non-Smokers), the “AUC (inf)” value is 337 ± 94 ng·h/mL, the Cmax was found to be 270 ± 71 ng/mL, the Tmax is 0.50 h and the t½ came out at 1.18 ± 0.50 h. Further, in data set [1] (Smokers), the “AUC (inf)” value was determined as 329 ± 99 ng·h/mL, the Tmax was 0.75 h and the t½ is 0.89 ± 0.26 h. The Cmax in data set [1] (setting [4]) was 272 ± 86 ng/mL. In data set [1], the “AUC (inf), Geometric Mean Ratio” value came to 97.31%; the “Cmax, Geometric Mean Ratio” value amounted to 99.49%; the “t½, Geometric Mean Ratio” value amounted to 77.51%. Moreover, in data set [2] (setting [5]), the “AUC (inf)” value worked out at 106 ± 32.6 ng·h/mL, the Cmax worked out at 87.5 ± 24.4 ng/mL, the Tmax was found to be 0.50 h and the t½ came out at 1.00 ± 0.30 h. Also, in data set [2] (setting [6]), the “AUC (inf)” value amounted to 133 ± 32.9 ng·h/mL, the Cmax worked out at 63.6 ± 24.6 ng/mL, the Tmax amounted to 0.50 h and the t½ amounted to 3.51 ± 1.18 h. In addition, in data set [2], the “AUC (inf), Geometric Mean Ratio” value came out at 125.05%; the “Cmax, Geometric Mean Ratio” value came out at 69.31%; the “t½, Geometric Mean Ratio” value stood at 349.81%.

`COc1ccc2[nH]cc(CCNC(C)=O)c2c1` [Melatonin]: the Tmax in data set [3] is no less than 2 h.

On to `CCC(=O)NCC1CC1c1cccc2c1C(O)CO2` (stereo not drawn) [M12], for which, in data set [1] (Non-Smokers), the “AUC (inf)” value amounted to 679 ± 433 ng·h/mL, the Cmax is 108 ± 29 ng/mL, the Tmax was determined as 1.00 h and the t½ was determined as 3.05 ± 1.73 h. Besides, in data set [1] (Smokers), the “AUC (inf)” value was determined as 526 ± 193 ng·h/mL, the Tmax is reported as 1.00 h and the t½ turned out to be 2.11 ± 0.67 h. Besides, the Cmax in data set [1] (setting [4]) was 123 ± 28 ng/mL. In data set [1], the “AUC (inf), Geometric Mean Ratio” value is recorded as 84.87%; the “Cmax, Geometric Mean Ratio” value was 115.53%; the “t½, Geometric Mean Ratio” value turned out to be 73.31%. In addition, in data set [2] (setting [5]), the “AUC (inf)” value is 189 ± 90.8 ng·h/mL, the Cmax was determined as 31.0 ± 7.23 ng/mL, the Tmax amounted to 0.88 h and the t½ is 3.03 ± 1.02 h. Besides, in data set [2] (setting [6]), the “AUC (inf)” value came to 435 ± 109.3 ng·h/mL, the Cmax was determined as 30.8 ± 17.6 ng/mL, the Tmax was 3.00 h and the t½ is reported as 7.03 ± 3.27 h. In data set [2], the “AUC (inf), Geometric Mean Ratio” value amounted to 274.81%; the “Cmax, Geometric Mean Ratio” value was 92.74%; the “t½, Geometric Mean Ratio” value came to 241.02%.

Turning to `CCC(=O)NCC1CC1c1cccc2c1C(O)CO2` (stereo not drawn) [M14], in data set [1] (Non-Smokers), the “AUC (inf)” value worked out at 22.0 ± 24.2 ng·h/mL, the Cmax was 6.18 ± 3.15 ng/mL, the Tmax is 0.75 h and the t½ was 1.84 ± 1.22 h. Moreover, in data set [1] (Smokers), the “AUC (inf)” value worked out at 9.45 ± 11.88 ng·h/mL, the Tmax stood at 0.75 h and the t½ came out at 1.13 ± 0.54 h. In addition, in data set [1] (setting [4]), the Cmax was found to be 3.72 ± 1.86 ng/mL. Also, in data set [1], the “AUC (inf), Geometric Mean Ratio” value was found to be 42.98%; the “Cmax, Geometric Mean Ratio” value is reported as 60.17%; the “t½, Geometric Mean Ratio” value worked out at 65.09%. In data set [2] (setting [5]), the “AUC (inf)” value came out at 4.54 ± 2.39 ng·h/mL, the Cmax was 1.20 ± 0.40 ng/mL, the Tmax was 0.75 h and the t½ is 2.18 ± 0.97 h. For the same molecule, in data set [2] (setting [6]), the “AUC (inf)” value is 42.6 ± 27.3 ng·h/mL, the Cmax came to 3.20 ± 1.49 ng/mL, the Tmax is 4.00 h and the t½ is given as 4.98 ± 1.89 h. Moreover, in data set [2], the “AUC (inf), Geometric Mean Ratio” value was 944.73%; the “Cmax, Geometric Mean Ratio” value was 264.58%; the “t½, Geometric Mean Ratio” value is on record as 243.34%.

On to `CCC(=O)NC[C@@H]1C[C@H]1c1cccc(O)c1CCO` [M11], for which the “AUC (inf), Geometric Mean Ratio” value in data set [1] was determined as 81.84%; in data set [2], 126.03%. In addition, the results for the “Cmax, Geometric Mean Ratio” value in data set [1] and in data set [2] were 84.50% and 68.71%, respectively. The “t½, Geometric Mean Ratio” value in data set [1] came out at 94.13%; in data set [2], 248.35%. In addition, the AUC(0-inf) amounted to 154 ± 58 ng·h/mL in data set [1] (human, in vivo, Non-Smokers) and 124 ± 42 ng·h/mL in data set [1] (human, in vivo, Smokers). Further, the Cmax in data set [1] (setting [7]) is 54.9 ± 15.1 ng/mL; in data set [1] (setting [8]), 46.2 ± 11.9 ng/mL; in data set [2] (setting [10]) it was 15.8 ± 5.4 ng/mL. For the same molecule, the half-life in data set [1] (human, in vivo, Non-Smokers) is 2.14 ± 0.94 h; in data set [1] (human, in vivo, Smokers) it was 1.99 ± 0.85 h; in data set [2] (setting [12]) it was 1.61 ± 0.55 h. The Tmax in data set [1] (setting [9]) and in data set [2] (setting [11]) was 1 h each time.

As to `CCC(=O)NC[C@@H]1C[C@H]1c1cccc(O)c1CC(=O)O` [M9], the “AUC (inf), Geometric Mean Ratio” value in data set [1] came out at 74.36%; in data set [2], 122.56%. In addition, the “Cmax, Geometric Mean Ratio” value in data set [1] was 77.18%; in data set [2], 64.94%. Besides, the entries for the “t½, Geometric Mean Ratio” value in data set [1] and in data set [2] were 85.40% and 328.02%, respectively. Besides, the AUC(0-inf) amounted to 406 ± 75 ng·h/mL in data set [1] (human, in vivo, Non-Smokers) and 315 ± 112 ng·h/mL in data set [1] (human, in vivo, Smokers). Also, the Cmax in data set [1] (setting [7]) was found to be 279 ± 82.8 ng/mL; in data set [1] (setting [8]), 230 ± 118 ng/mL; in data set [2] (setting [10]), 67.6 ± 19.1 ng/mL. The half-life was 1.38 ± 0.45 h in data set [1] (human, in vivo, Non-Smokers); 1.15 ± 0.17 h in data set [1] (human, in vivo, Smokers); 1.14 ± 0.29 h in data set [2] (setting [12]). Further, the Tmax was 0.75 h in data set [1] (setting [9]) and 0.5 h in data set [2] (setting [11]).
